Each structure is given as a SMILES string.

One experiment concerns MARK4. The experiment is described as follows: Kinobeads competition binding: MARK4. On the set-up: species or system human. The conditions noted are these: target MARK4.
A further experiment concerns the target T1, AURKB (Homo sapiens, UniProt Q96GD4).
T1 construct: endogenous in cells
Put plainly: Kinobeads competition binding: AURKB. Particulars: target AURKB.

The subject of a further experiment is MAP3K4. Put plainly: Kinobeads competition binding: MAP3K4.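 Also: target engagement share of this target among all targets at its Kdapp concentration.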 On the set-up: species or system human. The conditions noted are these: target MAP3K4.
The target of another experiment is T2, EPHB6 (Homo sapiens, UniProt O15197).
T2 construct: to maximize the representation of endogenous proteins; endogenous in cells
T2 sequence (O15197 32-1021): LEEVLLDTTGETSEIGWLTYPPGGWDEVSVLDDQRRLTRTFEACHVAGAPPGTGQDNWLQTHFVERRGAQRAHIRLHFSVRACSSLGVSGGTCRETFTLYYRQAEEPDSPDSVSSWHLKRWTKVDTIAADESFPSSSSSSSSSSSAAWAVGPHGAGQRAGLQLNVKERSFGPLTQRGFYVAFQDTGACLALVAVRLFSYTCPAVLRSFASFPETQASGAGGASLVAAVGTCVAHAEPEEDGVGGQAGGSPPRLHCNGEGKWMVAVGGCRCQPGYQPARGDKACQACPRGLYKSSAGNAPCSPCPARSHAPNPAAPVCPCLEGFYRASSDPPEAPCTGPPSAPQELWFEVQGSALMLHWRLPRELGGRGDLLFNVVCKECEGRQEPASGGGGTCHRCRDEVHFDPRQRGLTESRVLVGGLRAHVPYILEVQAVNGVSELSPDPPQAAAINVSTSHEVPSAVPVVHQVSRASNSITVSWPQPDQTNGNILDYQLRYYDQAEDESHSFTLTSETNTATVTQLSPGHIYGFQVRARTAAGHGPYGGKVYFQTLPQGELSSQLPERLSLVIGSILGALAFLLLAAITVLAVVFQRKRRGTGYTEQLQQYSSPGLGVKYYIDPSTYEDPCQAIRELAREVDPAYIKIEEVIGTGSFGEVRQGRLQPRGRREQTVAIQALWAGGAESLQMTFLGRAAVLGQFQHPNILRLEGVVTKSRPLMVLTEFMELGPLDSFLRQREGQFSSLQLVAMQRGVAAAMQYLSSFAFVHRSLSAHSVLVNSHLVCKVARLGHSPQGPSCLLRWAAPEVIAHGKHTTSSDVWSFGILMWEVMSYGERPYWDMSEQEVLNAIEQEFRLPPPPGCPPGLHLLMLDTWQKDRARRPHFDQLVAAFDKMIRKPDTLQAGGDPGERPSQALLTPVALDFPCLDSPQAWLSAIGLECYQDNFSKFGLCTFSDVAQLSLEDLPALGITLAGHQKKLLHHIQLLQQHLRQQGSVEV
The experiment is described as follows: Kinobeads two-dose competition binding: EPHB6. Particulars: target EPHB6. From the text: Briefly, Kinobeads comprise seven broad-spectrum small molecule kinase inhibitors immobilized on Sepharose beads. […]. Compounds of interest are set to compete for target protein binding with Kinobeads in the lysate and the amount of a given protein bound to Kinobeads in the presence of a compound can be quantified relative to a dimethylsulfoxide (DMSO) vehicle control by label-free mass spectrometry. This assay measures the physical interaction of a compound with thousands of endogenous proteins in parallel and, when systematically increasing the concentration of competitor, enables the calculation of an apparent interaction constant ( Kdapp ) for each compound and protein.
Kinobeads pulldown experiments were performed as described previously[13],[14],[17] with minor modification. […] The protein concentration was adjusted to 5 mg ml^−1. Kinase inhibitors were spiked into 0.5 ml of cell lysate at final concentrations of 100 and 1,000 nM (or DMSO, 0.3, 1, 3, 10, 30, 100, 300 and 1,000 nM for full dose experiments). […] Lysates were incubated for 45 min at 4 °C. Subsequently, lysates were incubated with Kinobeads ε (17.5 µl of settled beads) for 30 min at 4 °C. To assess the degree of protein depletion from the lysates by Kinobeads, the flow through of the DMSO control was recovered for a pulldown of pulldown experiment where the lysate was incubated a second time with fresh Kinobeads. Beads were washed in three steps with buffer containing 0.4%, 0.2% and no IGEPAL. Bound proteins were reduced with 50 mM DTT in 8 M Urea, 40 mM Tris-HCl pH 7.4 for 30 min at room temperature. After alkylation with 55 mM chloroacetamide, the urea concentration was reduced to 1–2 M and proteins were digested with trypsin. Acidified peptides were desalted and concentrated using SepPak tC18 µEluation plates (Waters). Samples were frozen, dried by vacuum centrifugation and stored at −20 °C.
Each kinase inhibitor was processed together with all DMSO controls of the same plate. Additionally, each search was supplemented with five high quality DMSO controls for consistent peptide identification and protein grouping. The resultant file (proteinGroups.txt) was used for subsequent filtering, normalization, data visualization and target annotation that was automatically performed by a data processing pipeline built in house that used R (including the ‘drc’ and ‘heatmap’ packages). First, reverse hits, potential contaminants and not quantified proteins in the DMSO control samples were discarded. Protein raw and label-free quantification intensities were normalized to the median DMSO control intensity to obtain relative residual binding intensities for each protein group at every inhibitor concentration and standard deviations of the DMSO control intensity were calculated. IC50 values were estimated based on the following equation IC50=I×100−inhibition/inhibition where [I] is the inhibitor concentration that was used for IC50 calculation and ‘inhibition’ the relative residual binding intensity. […]. Estimated Kdapp values were then calculated by multiplying the estimated IC50 values with a protein-dependent correction factor that was limited to a maximum value of one. The correction factor accounts for the depletion of a target protein from the lysate by Kinobeads. The depletion can be measured by the ratio of the amount of protein captured in two consecutive pulldowns of the same DMSO control lysate. In this study, correction factors were determined in separate experiments using the same lysate mixture and the same bead batch. Correction factors were set to the median of all correction factors. Targets of kinase inhibitors were annotated using the previously published random forest classifier. A training data set was annotated manually. […]

In a further experiment the test system is PIK3C2B. Put plainly: Kinobeads competition binding: PIK3C2B. On the set-up: species or system human. The conditions noted are these: target PIK3C2B.
In another experiment the target is T3, PIM2 (Homo sapiens, UniProt Q9P1W9).
T3 construct: a mixture of lysates from five cancer cell lines; endogenous in cells
Put plainly: Kinobeads competition binding: PIM2. Particulars: target PIM2. From the text:
Supplement 41589_2023_1459_MOESM4_ESM.xlsx, sheet "CATDS matrix" | column: PIM2

In a further experiment the target is T4, PIM1 (Homo sapiens, UniProt P11309).
T4 construct: a mixture of lysates from five cancer cell lines; endogenous in cells
The experiment is described as follows: Kinobeads competition binding: PIM1. The conditions noted are these: target PIM1.

For the next experiment, the target named is T5, PDGFRB (Homo sapiens, UniProt P09619).
T5 construct: a mixture of lysates from five cancer cell lines; endogenous in cells
Put plainly: Kinobeads competition binding: PDGFRB.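 Also: share of total target engagement due to this protein at one drug concentration.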 Particulars: target PDGFRB. From the text: Supplement 41589_2023_1459_MOESM4_ESM.xlsx, sheet "CATDS matrix" | column: PDGFRB

The next experiment deals with T6, CDK5 (Homo sapiens, UniProt Q00535).
T6 construct: endogenous in cells
Put plainly: Kinobeads competition binding: CDK5. The conditions noted are these: target CDK5.

As to `Nc1ncnc2[nH]c(-c3ccccc3)nc12` [AH5015_KCGS], the CATDS in the experiment on MARK4, at AURKB, in the experiment with MAP3K4, at EPHB6, in the experiment on PIK3C2B and on PIM2 was 0 in each case. In addition, the CATDS on PIM1, on PDGFRB and at CDK5 was 0 in each case.
Take `CCc1cc2c(cc1N1CCC(N3CCOCC3)CC1)C(C)(C)c1[nH]c3cc(C#N)ccc3c1C2=O` [Alectinib]: the CATDS in the experiment on MARK4, at AURKB, in the experiment with MAP3K4, on EPHB6, in the experiment on PIK3C2B and on PIM2 was 0 throughout. Further, the CATDS at PIM1, on PDGFRB and on CDK5 was 0 throughout.
As to `N#CC1(c2ccc(NC(=O)c3cccnc3NCc3ccncc3)cc2)CCCC1` [Apatinib], the CATDS in the experiment on MARK4, on AURKB, in the experiment on MAP3K4, at EPHB6, in the experiment with PIK3C2B and at PIM2 was 0 throughout. The CATDS on PIM1, at PDGFRB and on CDK5 was 0 each time.
For the compound `CCN1CCN(Cc2ccc(Nc3ncc(F)c(-c4cc(F)c5nc(C)n(C(C)C)c5c4)n3)nc2)CC1` [Abemaciclib], the CATDS in the experiment on MARK4, at AURKB, with MAP3K4, at EPHB6, in the experiment on PIK3C2B and on PIM2 was 0 in each case. In addition, the CATDS at PIM1 came to 0.03255; at PDGFRB it was 0; on CDK5, 0.
On to `CN(C)C/C=C/C(=O)Nc1cc2c(Nc3ccc(F)c(Cl)c3)ncnc2cc1O[C@H]1CCOC1` [Afatinib], for which the CATDS at EPHB6, at PIM2 and on PDGFRB was 0 each time.

(Values after article PMC11062922 (Nature Chemical Biology, 2023).)
